The values that follow come from ChEMBL document CHEMBL1201862, “PubChem BioAssay data set” (2004).

Some test systems named below: OVCAR-5; SNB-19; Hs-578T; SK-MEL-5; CCRF-CEM; UACC-62; SNB-75; MDA-MB-435; EKVX; Malme-3M; NCI-H226; 786-0; MCF7; NCI-H23; SF-268; MOLT-4; CAKI-1; SK-OV-3; UO-31.
Assay in all cases: DTP human tumour cell line panel, 48 h

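Compound exposure: 48 hours, 5 concentrations, 96-well plates. Here, GI50 denotes the concentration required for 50% inhibition of growth.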 The source made the active and inactive calls. Cut-off read from the data, not from the text of the source: active = GI50 up to about 1.1 µM and inactive = higher.

The GI50 is the concentration giving 50% growth inhibition. On to `CC12CCC(=O)C=C1CCC1C2CCC2(C)C(C(=O)Cn3cnc4c(=S)nc[nH]c43)CCC12` (stereo not drawn), for which the GI50 with OVCAR-5 is > 100 µM (inactive); with SNB-19 it was 23.6 µM (inactive); with Hs-578T, 52 µM (inactive); in the experiment with SK-MEL-5, 30.6 µM (inactive); with CCRF-CEM it was 25.5 µM (inactive); in the experiment on UACC-62, 23.8 µM (inactive). The GI50 in the experiment with SNB-75 was 15.5 µM (inactive); with MDA-MB-435 it was 24.7 µM (inactive); in the experiment with EKVX, 41.5 µM (inactive); in the experiment with Malme-3M it was 40.5 µM (inactive); with NCI-H226, 41.5 µM (inactive); in the experiment with 786-0, 27.2 µM (inactive). In addition, the GI50 in the experiment on MCF7 was 18.1 µM (inactive); in the experiment with NCI-H23, 24.5 µM (inactive); in the experiment on SF-268, 38.3 µM (inactive); with MOLT-4, 21.6 µM (inactive); with CAKI-1, 34 µM (inactive); in the experiment on SK-OV-3, 33.5 µM (inactive). In the experiment with UO-31, the GI50 was 44.8 µM (inactive).

For the compound `Cc1cc2nc3[nH]c4c(Cl)cc(Cl)cc4c3nc2cc1C`, the GI50 with OVCAR-5 is > 100 µM (inactive); with SNB-19, > 100 µM (inactive); with Hs-578T it was > 100 µM (inactive); with SK-MEL-5, > 100 µM (inactive); in the experiment with CCRF-CEM, 72.3 µM (inactive); with UACC-62, 84.7 µM (inactive). Further, the GI50 with SNB-75 is 9.12 µM (inactive); in the experiment with MDA-MB-435, > 100 µM (inactive); in the experiment on EKVX, > 100 µM (inactive); in the experiment on Malme-3M it was > 100 µM (inactive); in the experiment on NCI-H226, > 100 µM (inactive); in the experiment with 786-0 it was > 100 µM (inactive). In addition, the GI50 was > 100 µM (inactive) in the experiment on MCF7; > 100 µM (inactive) in the experiment with NCI-H23; > 100 µM (inactive) in the experiment on SF-268; 74 µM (inactive) in the experiment on MOLT-4; > 100 µM (inactive) in the experiment with CAKI-1; > 100 µM (inactive) in the experiment with SK-OV-3. The GI50 in the experiment on UO-31 was > 100 µM (inactive).

Regarding `CS(=O)(=O)N1CC(CCl)c2ccc(NO)cc21` (stereo not drawn), the GI50 in the experiment on OVCAR-5 is 15.1 µM (inactive); in the experiment on SNB-19, 22.5 µM (inactive); in the experiment with Hs-578T, 23.1 µM (inactive); with SK-MEL-5 it was 12.3 µM (inactive); in the experiment on CCRF-CEM it was 1.83 µM (inactive); with UACC-62, 13.6 µM (inactive). Further, the GI50 is 1.77 µM (inactive) in the experiment on SNB-75; 16.6 µM (inactive) with MDA-MB-435; 16.7 µM (inactive) with EKVX; 19.1 µM (inactive) with Malme-3M; 30 µM (inactive) with NCI-H226; 13.4 µM (inactive) with 786-0. The GI50 in the experiment with MCF7 was 8.3 µM (inactive); in the experiment with NCI-H23, 5.06 µM (inactive); with SF-268 it was 5.22 µM (inactive); in the experiment with MOLT-4, 3.48 µM (inactive); in the experiment on CAKI-1, 12.6 µM (inactive); in the experiment on SK-OV-3 it was 18.7 µM (inactive). The GI50 in the experiment on UO-31 was 10.3 µM (inactive).

On to `C[C@]12CC[C@H](O)CC1=CC[C@@H]1C2CC[C@]2(C)c3n[nH]nc3CC12` (stereo partly drawn), for which the GI50 in the experiment with OVCAR-5 was > 100 µM (inactive); in the experiment with SNB-19, > 100 µM (inactive); in the experiment with Hs-578T, 38.6 µM (inactive); with SK-MEL-5 it was > 100 µM (inactive); with CCRF-CEM, > 100 µM (inactive); with UACC-62 it was 96.6 µM (inactive). Moreover, the GI50 with SNB-75 is 82 µM (inactive); with MDA-MB-435 it was 36.2 µM (inactive); in the experiment with EKVX, 52.7 µM (inactive); with Malme-3M it was > 100 µM (inactive); in the experiment on NCI-H226, > 100 µM (inactive); with 786-0, > 100 µM (inactive). In addition, the GI50 in the experiment on MCF7, in the experiment on NCI-H23, in the experiment on SF-268, with MOLT-4, with CAKI-1 and in the experiment with SK-OV-3 was > 100 µM (inactive) throughout. Moreover, in the experiment on UO-31, the GI50 was > 100 µM (inactive).

On to `CC1=C(C(=O)NNC(=O)c2ccccc2O)CC(C(=O)NNC(=O)c2ccccc2O)=C(C)N1`, for which the GI50 is 22.6 µM (inactive) with OVCAR-5; 0.839 µM (active) in the experiment on SNB-19; 0.197 µM (active) in the experiment with Hs-578T; 2.06 µM (inactive) with SK-MEL-5; 4.7 µM (inactive) in the experiment with CCRF-CEM; 0.389 µM (active) in the experiment with UACC-62. The GI50 in the experiment on SNB-75 was 0.292 µM (active); in the experiment on MDA-MB-435, 0.425 µM (active); in the experiment with EKVX, 7.78 µM (inactive); in the experiment with Malme-3M it was > 100 µM (inactive); in the experiment on NCI-H226 it was 1.79 µM (inactive); in the experiment with 786-0 it was 3.13 µM (inactive). The GI50 with MCF7 is 0.612 µM (active); in the experiment with NCI-H23 it was 2.1 µM (inactive); with SF-268, 0.22 µM (active); with MOLT-4 it was 0.522 µM (active); in the experiment with CAKI-1 it was 0.993 µM (active); with SK-OV-3 it was 5.57 µM (inactive). In the experiment on UO-31, the GI50 is 0.277 µM (active).

Turning to `COc1cccc(/N=C/c2cc(OC)c(OC)c(OC)c2)c1`, the GI50 in the experiment on OVCAR-5 is > 53.2 µM (inactive); in the experiment on Hs-578T it was > 100 µM (inactive); with SK-MEL-5, 16.8 µM (inactive); in the experiment on CCRF-CEM, > 100 µM (inactive); in the experiment with UACC-62, 1.75 µM (inactive); in the experiment with SNB-75, > 100 µM (inactive). The GI50 with MDA-MB-435 was 18.8 µM (inactive); with EKVX, > 86.7 µM (inactive); in the experiment on Malme-3M it was > 100 µM (inactive); in the experiment with NCI-H226, > 54.8 µM (inactive); in the experiment on 786-0, > 100 µM (inactive); with MCF7, 56.9 µM (inactive). Further, the GI50 with NCI-H23 is > 100 µM (inactive); in the experiment with SF-268 it was > 100 µM (inactive); in the experiment on MOLT-4 it was > 72.1 µM (inactive); in the experiment on CAKI-1 it was > 100 µM (inactive); in the experiment on SK-OV-3, > 100 µM (inactive); in the experiment on UO-31, > 23 µM (inactive).

For `COC(=O)c1cc(O)c(O)c(O)c1-c1c(O)c(O)c(O)c(SC[C@H](NC(=O)OCc2ccccc2)C(=O)OCc2ccccc2)c1C(=O)OC`, the GI50 was 33.9 µM (inactive) in the experiment with OVCAR-5; 30.8 µM (inactive) with SNB-19; 29.6 µM (inactive) in the experiment with Hs-578T; 16.3 µM (inactive) in the experiment with CCRF-CEM; 22.3 µM (inactive) with UACC-62; 20.3 µM (inactive) with SNB-75. In addition, the GI50 in the experiment with MDA-MB-435 was 11.1 µM (inactive); in the experiment on EKVX, 19.7 µM (inactive); with Malme-3M it was 78.5 µM (inactive); in the experiment on NCI-H226, 21.2 µM (inactive); in the experiment with 786-0 it was 18.6 µM (inactive); with MCF7, 18 µM (inactive). For the same compound, the GI50 was 22 µM (inactive) with NCI-H23; 25.9 µM (inactive) with SF-268; 17.6 µM (inactive) in the experiment on MOLT-4; 18.7 µM (inactive) in the experiment on CAKI-1; 41.9 µM (inactive) in the experiment with SK-OV-3.

In the case of `O=C([C@H](O)[C@@H](O)c1cccc(Cl)c1)C12CC3CC(CC(C3)C1)C2`, the GI50 with OVCAR-5 is 3.1 µM (inactive); in the experiment with SNB-19, 1.82 µM (inactive); in the experiment on Hs-578T, 2.61 µM (inactive); in the experiment with SK-MEL-5 it was 4.13 µM (inactive); in the experiment on CCRF-CEM, 1.14 µM (inactive); in the experiment on UACC-62, 1.73 µM (inactive). The GI50 with SNB-75 was 1.72 µM (inactive); in the experiment on MDA-MB-435, 2.58 µM (inactive); in the experiment with EKVX, 2.07 µM (inactive); in the experiment on Malme-3M, 4.81 µM (inactive); in the experiment with NCI-H226, 4.32 µM (inactive); with 786-0 it was 1.05 µM (active). Moreover, the GI50 in the experiment on MCF7 is 0.667 µM (active); in the experiment on NCI-H23 it was 1.79 µM (inactive); with SF-268, 1.81 µM (inactive); in the experiment on MOLT-4 it was 2.84 µM (inactive); with CAKI-1, 2.08 µM (inactive); in the experiment with SK-OV-3, 8.71 µM (inactive). Further, the GI50 in the experiment with UO-31 was 1.9 µM (inactive).

Turning to `O=C1c2ccccc2-c2c1c1ccccc1c(=O)n2Cc1ccccc1`, the GI50 was > 100 µM (inactive) in the experiment with OVCAR-5; 43.5 µM (inactive) in the experiment with Hs-578T; 73.6 µM (inactive) in the experiment with SK-MEL-5; > 100 µM (inactive) with CCRF-CEM; 46.6 µM (inactive) with UACC-62; 56.4 µM (inactive) in the experiment with SNB-75. Besides, the GI50 with MDA-MB-435 was > 100 µM (inactive); in the experiment on EKVX, > 100 µM (inactive); in the experiment on Malme-3M, > 100 µM (inactive); with NCI-H226, > 100 µM (inactive); in the experiment with 786-0, 28.6 µM (inactive); with MCF7 it was > 100 µM (inactive). For the same compound, the GI50 in the experiment with NCI-H23 was 68.2 µM (inactive); with SF-268, 58.5 µM (inactive); in the experiment on MOLT-4, > 100 µM (inactive); with CAKI-1, 56.8 µM (inactive); in the experiment on SK-OV-3, > 100 µM (inactive); in the experiment with UO-31, > 100 µM (inactive).

Take `S=C(N/N=C(/c1ccccc1)c1ccccn1)Nc1ccc(Cl)cc1`: the GI50 in the experiment with OVCAR-5 was 0.0705 µM (active); with SNB-19 it was 3.02 µM (inactive); in the experiment with Hs-578T, 0.873 µM (active); in the experiment on SK-MEL-5, 0.403 µM (active); in the experiment with CCRF-CEM, < 0.0155 µM (active); with UACC-62, 0.59 µM (active). For the same compound, the GI50 with SNB-75 is 2.06 µM (inactive); in the experiment with MDA-MB-435 it was 2.22 µM (inactive); in the experiment with EKVX it was 0.462 µM (active); with Malme-3M it was 0.109 µM (active); with NCI-H226, 0.542 µM (active); in the experiment on 786-0 it was 1.05 µM (active). Besides, the GI50 in the experiment on MCF7 was 0.0258 µM (active); with SF-268, 0.236 µM (active); in the experiment on MOLT-4 it was < 0.0171 µM (active); in the experiment on CAKI-1, 0.264 µM (active); in the experiment on SK-OV-3, 0.175 µM (active); in the experiment on UO-31 it was 0.543 µM (active).

As to `CN(Cc1ccccc1)C(=S)S` [SODIUM BENZYL(METHYL)CARBAMODITHIOATE], the GI50 in the experiment with OVCAR-5 was 35.9 µM (inactive); in the experiment on Hs-578T, 78.7 µM (inactive); in the experiment with SK-MEL-5 it was 48.3 µM (inactive); with CCRF-CEM it was 16.5 µM (inactive); with UACC-62, 40.8 µM (inactive); in the experiment on SNB-75 it was > 100 µM (inactive). In addition, the GI50 in the experiment with MDA-MB-435 is 43.2 µM (inactive); in the experiment on EKVX, 47 µM (inactive); in the experiment on Malme-3M, 38.7 µM (inactive); in the experiment with NCI-H226, 98.6 µM (inactive); in the experiment with 786-0, 19.2 µM (inactive); in the experiment with MCF7, 45.5 µM (inactive). Moreover, the GI50 with NCI-H23 is 45.1 µM (inactive); in the experiment on SF-268 it was 53.3 µM (inactive); in the experiment with MOLT-4, 20 µM (inactive); in the experiment on CAKI-1, 37.4 µM (inactive); with SK-OV-3, > 100 µM (inactive); with UO-31, 27.2 µM (inactive).
